Like-named read-outs stand apart in the source and are kept apart here. Marks after values point to notes of the source that are not given here.
How the values were obtained:
WT GluN1/GluN2A = WT GluN1/GluN2A (Homo sapiens, UniProt Q05586+Q12879); experiment: TEVC current recordings from Xenopus oocytes, channel blocker inhibition; assay type: cell-based; conditions: for IC50: IC50, WT GluN1/WT 2A, holding −40 mV; for % inhibition: WT GluN1/WT 2A, 100 μM blocker, −40 mV
GluN1-G620R/GluN2A = GluN1-G620R/GluN2A (Homo sapiens, UniProt Q05586+Q12879, G620R); experiment: as above; assay type: cell-based; conditions: for % inhibition: 1-G620R/2A, 100 μM blocker, −40 mV; for IC50: IC50, 1-G620R/2A, holding −40 mV
GluN1/GluN2A-L611Q [1] = target: T1, GluN1/GluN2A-L611Q (Homo sapiens, UniProt Q05586+Q12879, L611Q); experiment: as above; assay type: cell-based; conditions: for % inhibition: 2A-L611Q, 100 μM blocker, −40 mV; for IC50: IC50, 2A-L611Q, holding −40 mV
[2] = target: GluN2A-N614S-containing NMDARs (Homo sapiens, UniProt Q05586+Q12879, N614S); experiment: as above; assay type: cell-based; conditions: for % inhibition: 2A-N614S, 100 μM blocker, −40 mV; for IC50: IC50, 2A-N614S, holding −40 mV
[3] = target: GluN2A-N615K-containing NMDARs (Homo sapiens, UniProt Q05586+Q12879, N615K); experiment: as above; assay type: cell-based; conditions: for % inhibition: 2A-N615K, 100 μM blocker, −40 mV; for IC50: IC50, 2A-N615K, holding −40 mV
WT GluN1/GluN2B = WT GluN1/GluN2B (Homo sapiens, UniProt Q05586+Q13224); experiment: as above; assay type: cell-based; conditions: for IC50: IC50, WT GluN1/WT 2B, holding −40 mV; for % inhibition: WT GluN1/WT 2B, 100 μM blocker, −40 mV
[4] = target: GluN2B-W607C-containing NMDARs (Homo sapiens, UniProt Q05586+Q13224, W607C); experiment: as above; assay type: cell-based; conditions: for % inhibition: 2B-W607C, 100 μM blocker, −40 mV; for IC50: IC50, 2B-W607C, holding −40 mV
[5] = target: GluN2B-G611V-containing NMDARs (Homo sapiens, UniProt Q05586+Q13224, G611V); experiment: as above; assay type: cell-based; conditions: for % inhibition: 2B-G611V, 100 μM blocker, −40 mV; for IC50: IC50, 2B-G611V, holding −40 mV
GluN1/GluN2B-N615I = GluN1/GluN2B-N615I (Homo sapiens, UniProt Q05586+Q13224, N615I); experiment: as above; assay type: cell-based; conditions: for % inhibition: 2B-N615I, 100 μM blocker, −40 mV; for IC50: IC50, 2B-N615I, holding −40 mV
GluN1/GluN2B-N615K = GluN1/GluN2B-N615K (Homo sapiens, UniProt Q05586+Q13224, N615K); experiment: as above; assay type: cell-based; conditions: for % inhibition: 100 μM blocker, −40 mV
[6] = target: GluN2B-N616K-containing NMDARs (Homo sapiens, UniProt Q05586+Q13224, N616K); experiment: as above; assay type: cell-based; conditions: for % inhibition: 2B-N616K, 100 μM blocker, −40 mV; for IC50: IC50, 2B-N616K, holding −40 mV
[7] = target: GluN2B-V618G-containing NMDARs (Homo sapiens, UniProt Q05586+Q13224, V618G); experiment: as above; assay type: cell-based; conditions: for % inhibition: 2B-V618G, 100 μM blocker, −40 mV; for IC50: IC50, 2B-V618G, holding −40 mV
[8] = target: GluN2B-V620M-containing NMDARs (Homo sapiens, UniProt Q05586+Q13224, V620M); experiment: as above; assay type: cell-based; conditions: for % inhibition: 2B-V620M, 100 μM blocker, −40 mV; for IC50: IC50, 2B-V620M, holding −40 mV
GluN1/GluN2A-L611Q [9] = target: T1, GluN1/GluN2A-L611Q; experiment: Current-voltage curves; conditions: 2A-L611Q

CNC1(c2ccccc2Cl)CCCCC1=O (stereo not shown) [ketamine]
IC50 (WT GluN1/GluN2A; w/ 1 mM Mg^2+): 17 µM
IC50 (WT GluN1/GluN2A; w/o Mg^2+): 5.5 µM
% inhibition (WT GluN1/GluN2A; w/ 1 mM Mg^2+): 79 ± 2.4% (24)
% inhibition (WT GluN1/GluN2A; w/o Mg^2+): 92 ± 1.1% (25)
% inhibition (GluN1-G620R/GluN2A; w/ 1 mM Mg^2+): 97 ± 0.6 (7)^¥ %
% inhibition (GluN1-G620R/GluN2A; w/o Mg^2+): 95 ± 1.8 (12) %
increased potency in 1 mM Mg^2+ compared to the same variant in the absence of Mg^2+ (GluN1-G620R/GluN2A; GluN1-G620R): 2.5 fold
enhanced potency in comparison to WT NMDARs (GluN1-G620R/GluN2A; GluN1-G620R, absence of Mg^2+): 2.2 fold
IC50 (GluN1-G620R/GluN2A; w/ 1 mM Mg^2+): 1 µM
IC50 (GluN1-G620R/GluN2A; w/o Mg^2+): 2.5 µM
% inhibition (GluN1/GluN2A-L611Q [1]; w/ 1 mM Mg^2+): 93 ± 2.1% (10) ^*^¥
% inhibition (GluN1/GluN2A-L611Q [1]; w/o Mg^2+): 87 ± 1.5% (17)
increased potency in 1 mM Mg^2+ compared to the same variant in the absence of Mg^2+ (GluN1/GluN2A-L611Q [1]; GluN2A-L611Q): 1.8 fold
IC50 (GluN1/GluN2A-L611Q [1]; w/ 1 mM Mg^2+): 4 µM
IC50 (GluN1/GluN2A-L611Q [1]; w/o Mg^2+): 7.2 µM
% inhibition ([2]; w/ 1 mM Mg^2+): 77 ± 4.1% (9)
% inhibition ([2]; w/o Mg^2+): 78 ± 3.0% (12)^¥
reduced potency (less potent) vs WT ([2]; GluN2A-N614S, absence of Mg^2+): ~ 3 fold
IC50 ([2]; w/ 1 mM Mg^2+): 31 µM
IC50 ([2]; w/o Mg^2+): 29 µM
% inhibition ([3]; w/ 1 mM Mg^2+): 92 ± 3.3% (7)^¥
% inhibition ([3]; w/o Mg^2+): 93 ± 1.5% (18)
IC50 ([3]; w/ 1 mM Mg^2+): 1.6 µM
IC50 ([3]; w/o Mg^2+): 4.3 µM
increased potency in 1 mM Mg^2+ compared to the same variant in the absence of Mg^2+ ([3]; printed GluN2A-N616K): 2.7 fold
IC50 (WT GluN1/GluN2B; w/ 1 mM Mg^2+): 14 µM
IC50 (WT GluN1/GluN2B; w/o Mg^2+): 4.2 µM
% inhibition (WT GluN1/GluN2B; w/ 1 mM Mg^2+): 86 ± 1.0% (12)
% inhibition (WT GluN1/GluN2B; w/o Mg^2+): 95 ± 1.0% (13)
% inhibition ([4]; w/ 1 mM Mg^2+): 89 ± 2.8% (9)
% inhibition ([4]; w/o Mg^2+): 80 ± 3.6% (12)^¥
reduced potency (less potent) vs WT ([4]; GluN2B-W607C, absence of Mg^2+): ~ 3 fold
IC50 ([4]; w/ 1 mM Mg^2+): 11 µM
IC50 ([4]; w/o Mg^2+): 16 µM
% inhibition ([5]; w/ 1 mM Mg^2+): 88 ± 1.6% (16)
% inhibition ([5]; w/o Mg^2+): 92 ± 2.6% (7)
reduced potency in 1 mM Mg^2+ vs absence of Mg^2+ ([5]; GluN2B-G611V): 2.6 fold
IC50 ([5]; w/ 1 mM Mg^2+): 8 µM
IC50 ([5]; w/o Mg^2+): 3.1 µM
% inhibition (GluN1/GluN2B-N615I; w/ 1 mM Mg^2+): 94 ± 1.8% (8)^¥
% inhibition (GluN1/GluN2B-N615I; w/o Mg^2+): 89 ± 1.9 (10) %
enhanced potency in comparison to WT NMDARs (GluN1/GluN2B-N615I; GluN2B-N615I, absence of Mg^2+): 8.1 fold
IC50 (GluN1/GluN2B-N615I; w/ 1 mM Mg^2+): 0.76 µM
IC50 (GluN1/GluN2B-N615I; w/o Mg^2+): 0.51 µM
IC50 (GluN1/GluN2B-N615K): > 100 µM
% inhibition (GluN1/GluN2B-N615K; 2B-N615K, w/ 1 mM Mg^2+): 6.5 ± 1.5% (16) ^*^¥
% inhibition (GluN1/GluN2B-N615K; 2B-N615K, w/o Mg^2+): 22 ± 3.8 (15)^¥ %
IC50 (GluN1/GluN2B-N615K; 2B-N615K, w/ 1 mM Mg^2+, holding −40 mV): > 100 µM
reduced potency compared to the WT receptors (GluN1/GluN2B-N615K; GluN2B-N615K, presence of 1 mM Mg^2+): over 5.9 fold
% inhibition ([6]; w/ 1 mM Mg^2+): 93 ± 1.3% (13)^¥
% inhibition ([6]; w/o Mg^2+): 91 ± 2.7% (8)
enhanced potency in comparison to WT NMDARs ([6]; GluN2B-N616K, absence of Mg^2+): 1.8 fold
IC50 ([6]; w/ 1 mM Mg^2+): 2.5 µM
IC50 ([6]; w/o Mg^2+): 2.3 µM
% inhibition ([7]; w/ 1 mM Mg^2+): 81 ± 2.1% (8)
% inhibition ([7]; w/o Mg^2+): 77 ± 3.0% (8)^¥
reduced potency (less potent) vs WT ([7]; GluN2B-V618G, absence of Mg^2+): ~ 3 fold
IC50 ([7]; w/ 1 mM Mg^2+): 24 µM
IC50 ([7]; w/o Mg^2+): 18 µM
% inhibition ([8]; w/ 1 mM Mg^2+): 91 ± 2.8% (8)
% inhibition ([8]; w/o Mg^2+): 93 ± 1.0% (10)
reduced potency in 1 mM Mg^2+ vs absence of Mg^2+ ([8]; GluN2B-V620M): 2.1 fold
IC50 ([8]; w/ 1 mM Mg^2+): 7 µM
IC50 ([8]; w/o Mg^2+): 3.4 µM
z δ (apparent, combined block) (GluN1/GluN2A-L611Q [9]; 1 mM Mg^2+ + 0.3 μM ketamine): 1.14
z δ (apparent, combined block) (GluN1/GluN2A-L611Q [9]; 1 mM Mg^2+ + 1.0 μM ketamine): 1.02
z δ (apparent, combined block) (GluN1/GluN2A-L611Q [9]; 1 mM Mg^2+ + 3.0 μM ketamine): 1.01
z δ (apparent, combined block) (GluN1/GluN2A-L611Q [9]; 1 mM Mg^2+ + 10 μM ketamine): 0.84
z δ (apparent, combined block) (GluN1/GluN2A-L611Q [9]; 1 mM Mg^2+ + 30 μM ketamine, zδ was fixed to 0.80 for this condition): 0.80 ^*
z δ (apparent, combined block) (GluN1/GluN2A-L611Q [9]; 1 mM Mg^2+ + 100 μM ketamine): 0.80
